One compound from EPA's ToxValDB 9.5 (doi:10.2903/j.efsa.2016.4498) can be followed below.

≈ marks a conversion by molar mass, not a printed value. Where only a bound is given, the exact number is not on record here.

Series [1] has as its system Pimephales promelas. The conditions noted are these: mortality.
Series [2] concerns Colinus virginianus.
In series [3] the test system is Hypoaspis aculeifer. The conditions noted are these: chronic/long-term; mortality.
In series [4] the test system is Tagia sp. To be noted: chronic/long-term; growth.
Series [5] deals with Apis mellifera. To be noted: acute, mortality.
Series [6] has as its system Oryctolagus sp. The conditions noted are these: chronic.
Series [7] relates to Elodea callitrichoides. The conditions noted are these: chronic/long-term; duration: 42 days.
Series [8] has as its system Daphnia magna. To be noted: chronic/long-term; duration: 21 days; mortality.
In series [9] the test system is Rattus norvegicus. The conditions noted are these: acute; oral; mortality.

As to `CNC1=C(c2cccc(C(F)(F)F)c2)C(=O)C(c2ccccc2)O1` (configuration not stated) [Flurtamone], in series [1] (acute, duration: 96 hours), the LC50 was 6.64 µg/mL (≈ 19.9 µM). Moreover, the NOEC in [1] (chronic/long-term, duration: 35 days) is 0.188 mg/L; in series [2] (chronic), 7.3 mg/kg-day; in series [3], 89 mg/kg; in series [4] it was 47.5 mg/kg; in series [7] it was 0.001 mg/L; in series [8], 0.071 mg/L. The LD50 in series [2] (acute, oral, mortality) is over 2530 mg/kg; in series [5] (dermal) it was over 100 µg/piece; in [5] (oral, unspecified), over 105 µg/piece; in series [9] it was over 5000 mg/kg. The compound also yielded an NOAEL in series [6] of 20 mg/kg-day.
